Data set [1] can be described thus: cytotoxicity in MDCK cell by MTT assay. As to conditions: dog, MDCK cells, CC50: concentration required to reduce MDCK cell viability by 50%, mean of n = 3.
The subject of data set [2] is influenza virus A/PR8/34 (H1N1). Kind of data set: microbe, parasite or virus in culture. In kind it is cell-based. As to conditions: MDCK cells, MOI = 1.0 (table footnote), 48 h post-infection, mean of n = 4, read-out: IC50: concentration required to inhibit influenza virus A/PR8/34 (H1N1) yield at 48 h post-infection by 50%.
In a further data set the test system is MDCK cells. As to conditions: dog, 48 h.
The nature of another data set: in vitro. As to conditions: dog, CC50: concentration required to reduce MDCK cell viability by 50%.

Drawing on article PMC5898002, “Overexpression of a type III PKS gene affording novel violapyrones with enhanced anti-influenza A virus activity” (Microbial Cell Factories, 2018), this text covers CC50 and IC50 for six molecules.

Where only a bound is given, the exact number is not on record here.

As a reminder, the CC50 is the concentration giving 50% cytotoxicity. Higher therefore signals better tolerance by the cells. On to `CCCCCCCc1cc(O)c(C)c(=O)o1` [Compound 11, VLP I], for which the CC50 at 48 h in data set [1] was 2200 µM. For the same molecule, in data set [2], the IC50 was 113 µM.
In the case of `Cc1c(O)cc(CCCCC(C)C)oc1=O` [Compound 10, Violapyrone B], in the data set on MDCK cells, the CC50 was above 1500 µM. Moreover, the IC50 in data set [2] is above 200 µM. Further, the CC50 at 48 h in the data set “in vitro” is above 1400 µM.
On to `Cc1c(O)cc(CCCCCC(C)C)oc1=O` [Compound 14, VLP H], for which, in data set [1], half-maximal cytotoxicity (CC50 at 48 h) was put at 1450 µM. The IC50 in data set [2] was found to be 28.8 µM.
For `NC(=O)c1ncn([C@@H]2O[C@H](CO)[C@@H](O)[C@H]2O)n1` [Ribavirin, reference compound] the same measures were 1520 µM and 113 µM.
`CCc1c(O)cc(CCCCC(C)C)oc1=O` [Compound 12, VLP P]: it took 1570 µM to reach half-maximal cytotoxicity in data set [1] (CC50 at 48 h). The IC50 in data set [2] was found to be 26.9 µM.
`CCC(C)CCCCc1cc(O)c(C)c(=O)o1` (stereo not shown) [Compound 13, VLP C] gave a CC50 at 48 h in data set [1] of 1620 µM. Also, in data set [2], the IC50 stood at 107 µM.
